Values after ≈ are worked out from the molar mass of the structure shown. Where two headings read alike, the source gives them in different places.
Tests used:
Format in all cases: cell-based
[1] = tested on: Staphylococcus aureus CNCM 53154; assay: Minimum bactericidal concentration, 30 min contact, strain 1; conditions: CNCM53154, 0.5 h, read-out: MBC, strain 1
Experimental: (§1) A bacterial inoculum is brought into contact with different dilutions of the test product for a limited time of 30 minutes. When the contact time has ended, an aliquot of the bacterial suspension/product mixture is deposited on the surface of a gelose culture medium containing an agent for neutralizing the antibacterial activity of the product. The bactericidal concentration chosen is the minimum concentration of the product which is necessary to prevent bacterial growth. This concentration is expressed in μg/ml.
1 - Staphylococcus aureus CNCM 53154;
(§2) The strains are maintained on Tryptic Soy Agar (TSA) marketed by Difco.
(§3) After 24 hours of culture at 37° C., the microbial growth is harvested with the aid of glass beads and 10 ml of diluent containing 1 g of tryptone and 8.5 g of sodium chloride in 1000 ml of distilled water. The suspension formed is shaken and the percentage transmission of light at 620 nm is measured on a spectrophotometer:
(§4) The bacterial inoculum corresponds to a 1/20 dilution of this bacterial suspension.
(§5) Plates containing cups receive different dilutions of the test product. These dilutions of the test product are brought into contact with the different bacterial suspensions using a multiple-site inoculator. After a contact time of 30 minutes, aliquots are transferred by means of this inoculator to the surface of a gelose medium (TSA) placed in petri dishes and containing an agent for neutralizing the activity, namely 20 g of lubrol W, 2.5 g of Tween 80, 2.5 g of sodium thiosulfate and 1% of egg yolk in 1000 ml of TSA (Difco). A reference for the efficacy of the neutralizing agent is prepared for each test product by depositing an aliquot of the dilution of the test product on the surface of the culture medium. After drying, the corresponding inoculum is deposited in the same place. A reference inoculum is prepared on a gelose medium with and without neutralizing agent. The results are read off after 48 hours of incubation at 37° C.
(§6) They indicate the minimum bactericidal concentrations (MBC) for strains 1, 2, 3 and 4 and the minimum fungicidal concentrations (MFC) for strain 5.

[2] = tested on: Streptococcus faecalis CNCM 5855; assay: Minimum bactericidal concentration, 30 min contact, strain 2; conditions: Enterococcus faecalis, CNCM5855, 0.5 h, read-out: MBC, strain 2
Experimental: as §1
2 - Streptococcus faecalis CNCM 5855;
as §2, §3, §4, §5, §6

[3] = tested on: Pseudomonas aeruginosa CNCM A22; assay: Minimum bactericidal concentration, 30 min contact, strain 3; conditions: CNCMA22, 0.5 h, read-out: MBC, strain 3
Experimental: as §1
3 - Pseudomonas aeruginosa CNCM A22;
as §2, §3, §4, §5, §6

[4] = tested on: Escherichia coli CNCM 54127; assay: Minimum bactericidal concentration, 30 min contact, strain 4; conditions: CNCM54127, 0.5 h, read-out: MBC, strain 4
Experimental: as §1
4 - Escherichia coli CNCM 54127.
as §2, §3, §4, §5, §6

[5] = tested on: Candida albicans CNCM 1180; assay: Minimum fungicidal concentration, strain 5; conditions: CNCM1180, 0.5 h, read-out: MFC, strain 5
Experimental: as §1, §5
(§7) The antifungal activity of the products according to the invention was also determined using the method described above. The representative strain of yeast selected for the study was Candida albicans CNCM 1180 (strain 5).
This is maintained on a gelose medium of Sabouraud Dextrose Agar, marketed by Difco. The technique is identical to that described for studying the antibacterial activity. After 48 hours of culture at 37° C., the microbial growth is harvested with the aid of glass beads and 5 ml of diluent containing 1 g of tryptone and 8.5 g of sodium chloride in 1000 ml of distilled water; a further 5 ml of the diluent are then added. In a spectrophotometer, this suspension gives a 2 to 3% transmission of light at 620 nm. The inoculum corresponds to a 1/10 dilution of this microbial suspension. A 1/100 dilution of this suspension, observed between a microscope slide and cover slip through a lens of magnification 40, should show 10 cells per field, which corresponds to 1 000 000 yeasts per ml.
as §6

[6] = tested on: bacterial strains and fungal strain tested; assay: Bactericidal and fungicidal activities on the strains tested (overall statement); conditions: bacterial strains 1-4 and fungal strain 5
Experimental: The bactericidal and fungicidal activities of the products according to the invention were studied on different strains.
as §1, §5, §7
By way of comparison, 3-aryloxy-1-piperidinopropan-2-ol derivatives described in the literature, or similar to the compounds described, were prepared and the bactericidal and fungicidal activities of these compounds and of propranolol were measured on the same strains and under the same conditions as for the products according to the invention. The results are reported in Table II after those obtained with the products according to the invention.

[7] = Staphylococcus aureus CNCM 53154, contact time 30 minutes, solubilizing agent (water, TEG or acetone) given per product
[8] = Streptococcus faecalis CNCM 5855, contact time 30 minutes, solubilizing agent given per product
[9] = Pseudomonas aeruginosa CNCM A22, contact time 30 minutes, solubilizing agent given per product
[10] = Escherichia coli CNCM 54127, contact time 30 minutes, solubilizing agent given per product
[11] = Candida albicans CNCM 1180, contact time 30 minutes, solubilizing agent given per product

In the case of `Cl.OC(COc1ccccc1)CN1CCC(c2ccccc2)CC1` (stereo not drawn) [Product B, 3-phenoxy-1-(4-phenylpiperidino)propan-2-ol hydrochloride, reference compound], the MBC [1, 7] is reported as over 1000 µg/mL, the MBC [2, 8] is reported as over 1000 µg/mL and the MBC [3, 9] is reported as over 1000 µg/mL. For the same molecule, the MBC [4, 10] was over 1000 µg/mL, the MFC [5, 11] was over 1000 µg/mL and the “antimicrobial activity (in words)” value [6] was “no antimicrobial activity”.
`Cl.OC(CSc1ccc(Br)cc1)CN1CCCCC1` (stereo not drawn) [Product C, 3-(4-bromophenylthio)-1-piperidinopropan-2-ol hydrochloride, reference compound] was tested, and the MBC [1, 7] was over 1000 µg/mL, the MBC [2, 8] was over 1000 µg/mL and the MBC [3, 9] was over 1000 µg/mL. The MBC [4, 10] was over 1000 µg/mL, the MFC [5, 11] was 1000 µg/mL and the “antimicrobial activity (in words)” value [6] was “no antimicrobial activity”.
Work on `CC(C)NCC(O)COc1cccc2ccccc12` (stereo not drawn) [Propranolol, propranolol, reference compound] yielded an MBC ([1]; Staphylococcus aureus) of 5000 µg/mL (≈ 19.3 mM), an MBC [2] of 1000 µg/mL (≈ 3.86 mM) and an MBC ([3]; Pseudomonas aeruginosa) of 1000 µg/mL (≈ 3.86 mM). For the same molecule, the MBC ([4]; Escherichia coli) was 1000 µg/mL (≈ 3.86 mM), the MFC ([5]; Candida albicans) was 5000 µg/mL (≈ 19.3 mM) and the “antimicrobial activity (in words)” value [6] was “no antimicrobial activity”.
Molecule `CC1CCN(CC(O)COc2ccc(Br)cc2)CC1.Cl` (stereo not drawn) [Product A, 3-(4-bromophenoxy)-1-(4-methylpiperidino)propan-2-ol hydrochloride, reference compound] has an MBC [1, 7] of over 2000 µg/mL, an MBC [2, 8] of 1000 µg/mL and an MBC [3, 9] of 1000 µg/mL. The MBC [4, 10] was 1000 µg/mL, the MFC [5, 11] was 5000 µg/mL and the “antimicrobial activity (in words)” value [6] was “no antimicrobial activity”.

Source: patent US5036077A, “1-(benzylpiperidino)propan-2-ol derivatives, their preparation, their use as antimicrobial agents and the products in which they are present” (Sanofi, priority 1987, dated 1991)
